Measurements as given in patent publication EP0205308B1, “Scytophycins” (Moore, Richard Elliott, priority 1985, dated 1986).
Marks after values point to notes of the source that are not given here.

Key:
Experiment in all cases: In vitro agar-diffusion test
Format in all cases: cell-based
[1] = system: Saccharomyces pastorianus X52; parameters: key: T = trace
Method: (§1) The activity of scytophycin compounds against pathogenic fungi in standard in vitro agar-diffusion tests, using ¼"(6mm) discs holding ~30 µL of test solution, is illustrated in Tables 6-12.

Candida albicans X657 = system: Candida albicans X657
Method: as §1

Neurospora crassa X846 = system: Neurospora crassa X846
Method: as §1

Pythium ultimum X751 = system: Pythium ultimum X751
Method: as §1

Rhizoctonia solani X767 = system: Rhizoctonia solani X767
Method: as §1

[2] = system: Sclerotina homoeocarpa X768
Method: as §1

Row | Substance | Size of Zone of Inhibition (mm) ([1]; Table 9, 1 mg/mL) | Size of Zone of Inhibition (mm) (Candida albicans X657; Table 9, 1 mg/mL) | Size of Zone of Inhibition (mm) (Neurospora crassa X846; Table 9, 1 mg/mL) | Size of Zone of Inhibition (mm) (Pythium ultimum X751; Table 12, 0.5 mg/mL) | Size of Zone of Inhibition (mm) (Rhizoctonia solani X767; Table 12, 0.5 mg/mL) | Size of Zone of Inhibition (mm) ([2]; Table 12, 0.5 mg/mL) | Size of Zone of Inhibition (mm) ([1]; Table 8, 0.33 mg/mL) | Size of Zone of Inhibition (mm) ([1]; Table 8, 1 mg/mL) | Size of Zone of Inhibition (mm) (Candida albicans X657; Table 8, 0.33 mg/mL) | Size of Zone of Inhibition (mm) (Candida albicans X657; Table 8, 1 mg/mL) | Size of Zone of Inhibition (mm) (Neurospora crassa X846; Table 8, 0.33 mg/mL) | Size of Zone of Inhibition (mm) (Neurospora crassa X846; Table 8, 1 mg/mL) | Size of Zone of Inhibition (mm) (Pythium ultimum X751; Table 11, 0.33 mg/mL) | Size of Zone of Inhibition (mm) (Pythium ultimum X751; Table 11, 1.0 mg/mL) | Size of Zone of Inhibition (mm) (Rhizoctonia solani X767; Table 11, 0.33 mg/mL) | Size of Zone of Inhibition (mm) (Rhizoctonia solani X767; Table 11, 1.0 mg/mL) | Size of Zone of Inhibition (mm) ([2]; Table 11, 0.33 mg/mL) | Size of Zone of Inhibition (mm) ([2]; Table 11, 1.0 mg/mL) | Size of Zone of Inhibition (mm) (Rhizoctonia solani X767; Table 11, 0.33 mg/mL, second value of the cell, after the zone marked overgrowth) | Size of Zone of Inhibition (mm) (Rhizoctonia solani X767; Table 11, 1.0 mg/mL, second value of the cell, after the zone marked overgrowth)
1 | Scytophycin C | 17 mm | 22 mm | 30 mm | 12^a mm | 30 mm | 32 mm | – | – | – | – | – | – | – | – | – | – | – | – | – | –
2 | Scytophycin D | – | – | – | – | – | – | T^a | 12 mm | 14 mm | 19 mm | 20 mm | 25 mm | 24 mm | 27 mm | 22 mm | 30 mm | 20 mm | 26 mm | – | –
3 | Scytophycin E | – | – | – | – | – | – | 18 mm | 23 mm | 22 mm | 21 mm | 26 mm | 36 mm | 30 mm | 40 mm | 33 mm | 46 mm | 33 mm | 35 mm | 15 mm | 25 mm
